Reference: patent US20040192751A1, “Amino acid composition for ameliorating liver failure” (priority 2001, published 2004)

Assays:
[1] = system: mice in which alcoholic functional disorders of a liver were developed; assay: Serum GOT concentration 12 hours after ethanol administration in mice pre-administered amino acid compositions; format: in vivo; details: judged from GOT and GPT values 12 h after ethanol
Method: In the present Examples, outbreak and healing of functional disorders of a liver were judged by employing GOT (Glutamic Oxaloacetic Transaminase), GPT (Glutamic Pyruvic Transaminase), total cholesterol and triglyceride which are indexes for functional disorders of the liver.
(§1) Measurements were conducted using a clinical diagnosis kit available from Wako Pure Chemical Industries, Ltd.
The following reagents were used for measurement of GOT.
The action of the substrate enzyme liquid to a specimen to be measured generates glutamic acid and oxalacetic acid from L-aspartic acid and α-keto glutaric acid, respectively, by means of GOT in the specimen. […]
The hydrogen peroxide thus produced quantitatively and oxidatively condenses the TOOS and 4-aminoantipyrine to generate violet pigment (refer to Formula 1) by the action of the co-existing peroxidase (POD).
The active value of the GOT in the specimen is measured by the violet absorbance. The ascorbic acid contained in the specimen is decomposed by the ascorbic acid oxidase contained in the substrate enzyme liquid, thereby affecting little influence on the measured value. […]
After a standard specimen having a known concentration prepared by using the standard liquid was preliminarily heated and the substrate buffer was added thereto, the absorbance of the standard specimen was measured and a calibration curve was prepared using the measured values. […]

[2] = system: mice in which alcoholic functional disorders of a liver were developed; assay: Total cholesterol amount in the liver 12 hours after ethanol administration; format: in vivo; details: 12 hours following the ethanol administration; control = no administration
Method: as §1
The following reagents were used for the measurement of the total cholesterol.
The action of the color generating agent to a specimen to be measured decomposes the cholesterols into the liberated cholesterols and fatty acids by the action of the cholesterol esterase. The cholesterols thus generated together with the liberated cholesterols already existing are oxidized to produce hydrogen peroxide by means of the action of the cholesterol oxidase. The hydrogen peroxide thus produced quantitatively and oxidatively condenses the phenols and 4-aminoantipyrine to generate red pigment (red quinone-based pigment, refer to Formula 3) by the action of the peroxidase (POD).
The concentration of the total cholesterol in the specimen was determined by measuring the red absorbance.
After 0.01 ml of the specimen was dissolved in isopropanol, 1.5ml of the color producing agent was added therein followed by heating at 37° C. for 10 minutes under sufficient agitation. The absorbance of the specimen at 505 nm was measured by using a blind specimen as reference by means of a spectrophotometer. […]

## N[C@@H](Cc1ccc(O)cc1)C(=O)O [0.25% Tyr, tyrosine]
[1]
  action for improving functional disorders of the liver using GOT and GPT as the indexes: next most effective
[2]
  total cholesterol in the liver, compared with control (FIG. 5): values lower than those of the control

## N[C@@H](Cc1c[nH]c2ccccc12)C(=O)O [2% Trp, tryptophane]
[1]
  action for improving functional disorders of the liver using GOT and GPT as the indexes: next most effective
[2]
  total cholesterol in the liver, compared with control (FIG. 5): values lower than those of the control
